Data set [1] is described as follows: In vitro metabolism with rat liver microsomes. To be noted: NADPH, 30 min. It counts as in vitro ADME. The procedure:
Labelled compounds ([^11C]AHK2.1, 2.8 MBq, 0.4 nmol; [^11C]AHK2.2, 4.7–5.1 MBq, 0.2–0.4 nmol; [^3H]AHK2, 0.25 MBq, 0.5 nmol; or non-radioactive AHK2, the latter for metabolite identification) and microsomal protein (rat Sprague Dawley microsomes, Thermo Fisher Scientific, Carlsbad, CA, USA; which are a sub-cellular fraction of hepatocytes containing enzymes responsible for the metabolism of over 90% of commercial drugs; 20 mg/mL) were pre-incubated for 5 min with gentle agitation (300 rpm) in 100 mM phosphate buffer (pH 7.4). The reaction was initiated by the addition of 10 μL freshly prepared 20 mM nicotinamide adenine dinucleotide phosphate (NADPH, Roche, Mannheim, Germany) in 100 mM phosphate buffer (pH 7.4). […] The resulting supernatants were analysed by HPLC, using an Agilent 1200 Series chromatograph equipped with a multiple wavelength UV detector (λ = 254 nm) and two radioactivity detectors, one of them equipped with a solid scintillation cell, especially designed to detect low energy β^- (Ramona, Raytest), and one of them equipped with a NaI crystal, for the detection of γ-rays (Gabi, Raytest). […] For the non-radioactive AHK2, the resulting supernatants were analysed by ultra-high-performance liquid chromatography coupled with electrospray ionization time-of-flight mass spectrometry (UHPLC-ESI-TOF-MS, Electrospray positive mode/W mode m/z range 100–1000). […]
In general terms: Liver microsomes are vesicles of endoplasmic reticulum, rich in cytochrome P450 enzymes.

The next data set addresses T1, FKBP12/RyR interaction (Homo sapiens, UniProt P62942).
T1 construct: endogenous in cells; host or cells: immortalized human myoblasts differentiated into myotubes
The experiment in a line: In situ proximity ligation assay (PLA) in human myotubes under nitro-oxidative stress. Conditions: human myotubes challenged with peroxynitrite donor SIN1 (5 mM, 30 min). The data set is classed as cell-based. As to the method: In situ PLA was used for evaluation of FKBP12/RyR stability in human myotubes under nitro-oxidative stress, as previously described. Briefly, immortalized human myoblasts (Myology Institute, Paris, France) were differentiated into myotubes and nitro-oxidative stress was induced by addition of the peroxynitrite donor 3-morpholinosydnonimine (SIN1, 5 mM, SCBT, Heidelberg, Germany) for 30 min. Myotubes were fixed with 4% paraformaldehyde (Aname, Madrid, Spain) and incubated overnight with the following primary antibodies: anti-RyR mouse mAb (1:200, Thermo Scientific, Waltham, MA, USA), and anti-FKBP12 rabbit pAb (1:100, Novus Biologicals, Centennial, CO, USA). The Duolink in situ PLA Orange assay kit was used with corresponding conjugated secondary antibodies (Sigma). Samples were counterstained with FITC-conjugated Myosin Heavy Chain-CFS mAb (MyHC, 1:50, R&D, Minneapolis, MN, USA) and mounted with ProLong Gold antifade reagent (Life Technologies, Eugene, OR, USA). Image quantification was performed with ImageJ (NIH). For each image, the total number of spots was normalized to the MyHC area. At least 3 images per condition were analysed with an average of 8–9 myotubes per image. Statistical significance was determined using One-Way ANOVA followed by Dunett’s multiple comparisons test. p-values < 0.05 were considered statistically significant.

T1 sequence (P62942 2-108 limits assumed): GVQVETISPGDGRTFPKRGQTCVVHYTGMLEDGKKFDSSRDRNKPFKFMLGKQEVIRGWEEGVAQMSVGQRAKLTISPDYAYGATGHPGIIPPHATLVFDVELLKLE
T1 sequence (P21817 whole entry partner): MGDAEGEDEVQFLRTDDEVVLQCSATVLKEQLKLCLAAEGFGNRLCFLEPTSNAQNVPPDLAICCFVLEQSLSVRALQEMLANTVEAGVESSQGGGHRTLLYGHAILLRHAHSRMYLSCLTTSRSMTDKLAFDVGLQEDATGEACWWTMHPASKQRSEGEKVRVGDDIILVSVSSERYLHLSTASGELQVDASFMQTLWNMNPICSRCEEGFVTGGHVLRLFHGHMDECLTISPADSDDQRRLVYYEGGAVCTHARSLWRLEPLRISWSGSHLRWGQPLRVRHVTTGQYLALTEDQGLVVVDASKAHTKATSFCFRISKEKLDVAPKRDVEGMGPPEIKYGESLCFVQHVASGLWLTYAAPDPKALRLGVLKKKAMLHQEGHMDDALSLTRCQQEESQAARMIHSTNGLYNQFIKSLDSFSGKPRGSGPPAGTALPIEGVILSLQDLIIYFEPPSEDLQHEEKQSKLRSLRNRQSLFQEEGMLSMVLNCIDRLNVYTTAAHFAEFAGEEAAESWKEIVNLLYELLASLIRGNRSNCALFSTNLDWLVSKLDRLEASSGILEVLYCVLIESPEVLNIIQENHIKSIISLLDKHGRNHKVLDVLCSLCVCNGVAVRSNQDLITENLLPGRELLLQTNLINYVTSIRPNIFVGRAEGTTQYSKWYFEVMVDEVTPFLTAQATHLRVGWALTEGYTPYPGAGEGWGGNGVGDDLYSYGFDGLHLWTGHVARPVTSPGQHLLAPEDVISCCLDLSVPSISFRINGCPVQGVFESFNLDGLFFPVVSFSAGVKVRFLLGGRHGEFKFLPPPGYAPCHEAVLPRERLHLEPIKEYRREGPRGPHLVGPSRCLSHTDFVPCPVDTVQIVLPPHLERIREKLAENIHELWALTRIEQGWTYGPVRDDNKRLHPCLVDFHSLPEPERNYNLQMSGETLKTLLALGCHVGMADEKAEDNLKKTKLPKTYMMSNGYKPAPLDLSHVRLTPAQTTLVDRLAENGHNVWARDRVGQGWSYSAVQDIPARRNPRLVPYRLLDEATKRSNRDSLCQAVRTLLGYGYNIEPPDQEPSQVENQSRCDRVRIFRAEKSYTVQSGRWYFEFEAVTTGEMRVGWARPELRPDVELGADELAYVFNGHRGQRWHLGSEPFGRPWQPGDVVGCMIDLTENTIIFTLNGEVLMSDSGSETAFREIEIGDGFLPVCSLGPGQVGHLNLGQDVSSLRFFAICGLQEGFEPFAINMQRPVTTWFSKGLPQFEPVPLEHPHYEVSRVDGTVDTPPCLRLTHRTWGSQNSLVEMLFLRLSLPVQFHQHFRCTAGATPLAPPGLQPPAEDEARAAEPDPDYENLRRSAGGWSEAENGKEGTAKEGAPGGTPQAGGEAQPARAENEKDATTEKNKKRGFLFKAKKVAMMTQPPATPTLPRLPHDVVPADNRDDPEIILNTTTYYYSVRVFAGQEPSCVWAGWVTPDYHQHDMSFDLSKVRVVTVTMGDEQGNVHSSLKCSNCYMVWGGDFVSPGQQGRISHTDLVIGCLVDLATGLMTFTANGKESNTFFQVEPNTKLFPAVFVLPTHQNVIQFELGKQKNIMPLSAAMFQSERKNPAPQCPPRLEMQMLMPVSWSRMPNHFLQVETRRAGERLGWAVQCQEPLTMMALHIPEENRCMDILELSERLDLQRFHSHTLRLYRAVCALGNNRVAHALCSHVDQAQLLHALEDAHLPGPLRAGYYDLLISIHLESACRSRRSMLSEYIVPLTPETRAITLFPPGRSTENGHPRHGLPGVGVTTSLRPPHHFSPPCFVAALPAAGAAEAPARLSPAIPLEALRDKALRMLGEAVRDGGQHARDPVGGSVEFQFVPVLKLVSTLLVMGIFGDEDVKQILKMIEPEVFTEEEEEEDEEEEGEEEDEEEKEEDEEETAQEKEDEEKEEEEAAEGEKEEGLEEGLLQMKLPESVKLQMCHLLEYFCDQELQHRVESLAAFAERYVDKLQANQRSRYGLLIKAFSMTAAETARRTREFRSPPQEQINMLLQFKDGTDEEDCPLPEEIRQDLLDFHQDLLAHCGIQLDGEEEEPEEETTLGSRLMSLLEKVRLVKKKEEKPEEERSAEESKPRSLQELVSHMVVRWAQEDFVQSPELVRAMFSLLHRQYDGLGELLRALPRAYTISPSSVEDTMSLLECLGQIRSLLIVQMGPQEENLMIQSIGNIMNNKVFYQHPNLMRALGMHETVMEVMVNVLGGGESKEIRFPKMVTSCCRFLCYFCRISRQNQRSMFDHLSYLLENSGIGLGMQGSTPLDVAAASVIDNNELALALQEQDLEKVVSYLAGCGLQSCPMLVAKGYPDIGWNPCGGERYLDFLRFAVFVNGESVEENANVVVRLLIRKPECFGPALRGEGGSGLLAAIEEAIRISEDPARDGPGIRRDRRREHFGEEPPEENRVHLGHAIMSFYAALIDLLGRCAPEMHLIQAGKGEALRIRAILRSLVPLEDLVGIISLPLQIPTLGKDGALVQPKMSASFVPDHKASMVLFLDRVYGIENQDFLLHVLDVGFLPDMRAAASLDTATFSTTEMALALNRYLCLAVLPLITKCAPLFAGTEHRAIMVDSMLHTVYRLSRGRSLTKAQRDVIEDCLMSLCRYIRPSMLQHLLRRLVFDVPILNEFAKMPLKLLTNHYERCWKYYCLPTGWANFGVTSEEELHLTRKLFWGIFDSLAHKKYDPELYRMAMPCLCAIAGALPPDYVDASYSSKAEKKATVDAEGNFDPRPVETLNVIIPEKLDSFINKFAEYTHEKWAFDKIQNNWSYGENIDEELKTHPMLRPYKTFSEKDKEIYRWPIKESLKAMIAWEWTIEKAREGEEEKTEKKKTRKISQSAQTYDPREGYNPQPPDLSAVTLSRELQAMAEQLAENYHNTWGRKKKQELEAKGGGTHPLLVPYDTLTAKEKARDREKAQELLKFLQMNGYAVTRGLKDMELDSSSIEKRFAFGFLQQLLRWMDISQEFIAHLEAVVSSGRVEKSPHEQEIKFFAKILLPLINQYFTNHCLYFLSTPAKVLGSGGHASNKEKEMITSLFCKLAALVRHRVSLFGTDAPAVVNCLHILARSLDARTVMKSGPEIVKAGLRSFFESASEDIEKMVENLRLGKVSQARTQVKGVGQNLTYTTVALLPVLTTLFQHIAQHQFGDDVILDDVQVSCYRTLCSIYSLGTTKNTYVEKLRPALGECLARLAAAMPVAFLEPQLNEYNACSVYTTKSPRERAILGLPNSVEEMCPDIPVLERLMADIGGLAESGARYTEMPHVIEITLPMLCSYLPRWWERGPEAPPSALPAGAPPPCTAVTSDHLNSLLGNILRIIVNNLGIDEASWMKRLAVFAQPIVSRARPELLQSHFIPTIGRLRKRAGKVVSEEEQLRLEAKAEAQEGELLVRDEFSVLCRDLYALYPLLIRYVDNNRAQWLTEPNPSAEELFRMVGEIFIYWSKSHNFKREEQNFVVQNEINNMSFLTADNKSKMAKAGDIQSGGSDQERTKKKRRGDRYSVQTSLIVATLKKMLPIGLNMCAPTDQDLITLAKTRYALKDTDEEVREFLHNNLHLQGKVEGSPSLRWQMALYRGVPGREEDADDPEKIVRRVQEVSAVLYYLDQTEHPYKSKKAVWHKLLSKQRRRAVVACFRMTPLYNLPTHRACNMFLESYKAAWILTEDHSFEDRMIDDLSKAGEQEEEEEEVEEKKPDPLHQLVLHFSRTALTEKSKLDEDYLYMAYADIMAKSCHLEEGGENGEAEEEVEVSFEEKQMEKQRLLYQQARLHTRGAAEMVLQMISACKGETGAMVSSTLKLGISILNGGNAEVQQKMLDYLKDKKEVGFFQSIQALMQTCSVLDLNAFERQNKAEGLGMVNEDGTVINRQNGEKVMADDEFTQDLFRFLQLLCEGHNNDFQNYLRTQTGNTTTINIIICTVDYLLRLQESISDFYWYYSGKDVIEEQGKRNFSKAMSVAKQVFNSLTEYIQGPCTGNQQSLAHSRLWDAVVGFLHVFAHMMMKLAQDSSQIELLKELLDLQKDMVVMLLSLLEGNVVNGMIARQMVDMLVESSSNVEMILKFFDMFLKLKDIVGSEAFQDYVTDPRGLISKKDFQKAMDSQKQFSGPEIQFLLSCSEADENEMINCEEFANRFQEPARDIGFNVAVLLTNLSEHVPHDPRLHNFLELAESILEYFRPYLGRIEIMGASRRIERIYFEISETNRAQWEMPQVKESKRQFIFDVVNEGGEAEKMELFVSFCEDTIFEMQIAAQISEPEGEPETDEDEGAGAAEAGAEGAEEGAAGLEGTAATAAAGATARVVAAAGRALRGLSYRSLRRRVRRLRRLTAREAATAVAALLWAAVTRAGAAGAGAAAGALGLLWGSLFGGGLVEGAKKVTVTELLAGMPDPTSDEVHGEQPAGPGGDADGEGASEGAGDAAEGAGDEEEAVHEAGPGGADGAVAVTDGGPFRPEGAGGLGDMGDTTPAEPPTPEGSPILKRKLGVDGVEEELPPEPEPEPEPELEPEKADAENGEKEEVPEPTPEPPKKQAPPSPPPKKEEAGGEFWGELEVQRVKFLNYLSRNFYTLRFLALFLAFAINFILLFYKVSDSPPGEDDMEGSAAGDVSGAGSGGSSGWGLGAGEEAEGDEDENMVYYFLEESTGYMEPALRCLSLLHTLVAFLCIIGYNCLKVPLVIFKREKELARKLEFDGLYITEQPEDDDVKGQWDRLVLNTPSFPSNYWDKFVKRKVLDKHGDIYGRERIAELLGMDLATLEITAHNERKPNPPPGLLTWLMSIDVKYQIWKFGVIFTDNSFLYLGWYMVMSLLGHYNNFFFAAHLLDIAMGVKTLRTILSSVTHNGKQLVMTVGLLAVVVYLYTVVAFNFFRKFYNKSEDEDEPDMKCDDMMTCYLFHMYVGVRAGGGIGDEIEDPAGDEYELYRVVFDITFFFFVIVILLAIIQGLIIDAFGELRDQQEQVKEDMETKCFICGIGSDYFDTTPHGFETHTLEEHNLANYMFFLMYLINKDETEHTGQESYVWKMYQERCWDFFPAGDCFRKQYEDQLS

On to `COc1ccc(SCc2cn(CCN(C)C)nn2)cc1` [AHK2, 1-[2-(N,N-dimethylamino)ethyl]-4-[(4-methoxyphenyl)thiomethyl]-1H-1,2,3-triazole], for which, in data set [1], the main metabolic pathways result is “oxidation of the thioether group into sulfoxide, demethylation of the CH3O-Ar residue and demethylation of –N(CH3)2”. Also, at FKBP12/RyR interaction, the “increase of FKBP12/RyR interaction (stabilization)” value is reported as 89%.

Values taken from PMC9953224, “Pharmacokinetic Evaluation of New Drugs Using a Multi-Labelling Approach and PET Imaging: Application to a Drug Candidate with Potential Application in Neuromuscular Disorders” (Biomedicines, 2023).
